Test: Binding affinity to biotinylated hairpin DNA by surface plasmon resonance assay

Work on `CC(=O)Nc1cn(C)c(C(=O)Nc2cc(C(=O)NCCC(=O)Nc3cn(C)c(C(=O)Nc4cc(C(=O)NCCCC(=O)Nc5cn(C)c(C(=O)Nc6cc(C(=O)NCCC(=O)Nc7cn(C)c(C(=O)Nc8cc(C(=O)NCCC(=O)NCCCN(C)C)n(C)c8)n7)n(CC#Cc7ccc8ccc9cccc%10ccc7c8c9%10)c6)n5)n(CC#Cc5ccc6ccc7cccc8ccc5c6c78)c4)n3)n(C)c2)n1` yielded a Kd of 837 nM.

From ChEMBL document CHEMBL1150368, “Detection of triplet repeat sequences in the double-stranded DNA using pyrene-functionalized pyrrole-imidazole polyamides with rigid linkers” (Bioorg Med Chem, 2008)
